Experiments:
[1] = tested on: Santa Luiza strain of the southern cattle tick, larvae; assay: FAO larval packet test, Santa Luiza strain (Example 5); conditions: for resistance of the strain: Santa Luiza strain
[2] = tested on: San Felipe strain of the southern cattle tick, larvae; assay: FAO larval packet test, San Felipe strain (Example 4); format: in vivo, Boophilus microplus
Experimental: The bioassays were conducted using the same process as described in Example 3, using the San Felipe strain of the southern cattle tick.

[3] = tested on: San Roman strain of the southern cattle tick, larvae; assay: FAO larval packet test, San Roman strain (Example 3)
Experimental: The strain used in these bioassays was the San Roman strain of the southern cattle tick (Boophilus microplus). […] The FAO larval packet test (LPT) was used to measure the susceptibility of tick larvae to acaricides. Dilutions of acaricide were prepared, dissolving the acaricide in trichloroethylene, then mixed with olive oil (ratio=2:1). A volume of 0.7 ml of the dilution was applied uniformly onto a piece of filter paper, and allowed to dry for 2 hr (trichloroethylene evaporates). The treated filter papers were folded into “packets” using bulldog clips, and approximately 100 larvae were added into each of “pockets”, which were then kept in a incubator (27° C., 90% RH) for 24 h before reading (# of dead and alive were counted under a magnifying glass).
In a first trial, tick larvae were exposed to 1% atrazine alone or in combination with 0.3, 0.6, or 1.2% w/v coumaphos.
In a second trial, tick larvae were exposed to varying concentrations of atrazine with either 0.3% coumaphos, 0.1 or 0.05% diazinon, or 0.01% coumaphos.

[4] = tested on: horn fly (Oklahoma strain, challenged with diazinon); assay: Horn fly adult treated filter paper bioassay, Oklahoma strain (Example 2); format: in vivo, Haematobia irritans irritans; conditions: for effect on coumaphos toxicity / effect on diazinon toxicity / effect on pirimiphos-methyl toxicity: triazine applied as 1% w/v solution, mortality after 2 hours; for effect on toxicity of chlorpyrifos: very high chlorpyrifos levels (140.2 μg/cm^2 and above), triazine 1% w/v
Experimental: The horn fly strain used in this trial (referred to as the Kerrville strain) is an in vitro strain being maintained on citrated bovine blood, and serves as a susceptible reference strain. Adult flies were exposed to organophosphate pesticide alone or in combination with varying ratios of atrazine or propazine (shown in FIGS. 1–8). […] Compounds were dissolved in acetone and applied onto filter paper, which was then placed into petri dishes with the adult flies and held at room temperature under normal lighting conditions. Flies were examined for mortality after 2 hours.
The bioassays of Example 1 were repeated using an in vivo strain (referred to as the Oklahoma strain) maintained on steers. This horn fly strain was established using eggs from flies collected from cattle at an Oklahoma State University research ranch. The strain is maintained in vivo on steers at the USDA-ARS-KBUSLIRL, and has been challenged with diazinon. Conditions for the bioassay were the same as Example 1 except for the addition of the organophosphate fenthion, and the triazine synergists were applied as a 1% w/v solution.

brown dog tick larvae = assay: FAO larval packet test, brown dog tick (Example 8); conditions: for effect on larvae: coumaphos alone
[5] = tested on: Pesqueria strain of the southern cattle tick, larvae; assay: FAO larval packet test, Pesqueria strain (Example 6); conditions: for mortality: 0.1% coumaphos alone; for resistance of the strain: Pesqueria strain
[6] = tested on: Munoz strain of the southern cattle tick, larvae; assay: FAO larval packet test, Munoz strain (Example 7)
[7] = tested on: horn fly (Kerrville strain, susceptible reference strain); assay: Horn fly adult treated filter paper bioassay, Kerrville strain (Example 1); format: in vivo, Haematobia irritans irritans; conditions: mortality after 2 hours; for effect on toxicity of chlorpyrifos: combined with chlorpyrifos 8.0 μg/cm^2; for effect on toxicity of coumaphos: combined with coumaphos 10 μg/cm^2; for effect on toxicity of pirimiphos-methyl: combined with pirimiphos-methyl 3.0 μg/cm^2
Experimental: The horn fly strain used in this trial (referred to as the Kerrville strain) is an in vitro strain being maintained on citrated bovine blood, and serves as a susceptible reference strain. Adult flies were exposed to organophosphate pesticide alone or in combination with varying ratios of atrazine or propazine (shown in FIGS. 1–8). Concentrations of diazinon, pirimiphos-methyl, chlorpyrifos and coumaphos were 2.8, 3.0, 8.0, and 10 μg/cm^2, respectively (measured as the amount of pesticide applied per unit area of filter paper). Compounds were dissolved in acetone and applied onto filter paper, which was then placed into petri dishes with the adult flies and held at room temperature under normal lighting conditions. Flies were examined for mortality after 2 hours.

## Cc1ccc(/N=C/N(C)/C=N/c2ccc(C)cc2C)c(C)c1 [amitraz]
[1]
  resistance of the strain: 70 fold

## CCNc1nc(Cl)nc(NC(C)C)n1 [atrazine]
[2]; all concentrations except 0.8%
  toxicity of atrazine alone: virtually non-toxic
[2]; atrazine alone at 0.8%
  mortality: 5.2%
[2]; combined with 0.1% coumaphos, even at lowest atrazine/coumaphos ratio 0.125/1
  synergism with coumaphos: significant synergism
[1]; 0.05% coumaphos, atrazine/coumaphos ratios of 2/1 and above
  synergism with coumaphos: Significant synergism
[1]; diazinon 0.025%, similar ratios, to a lesser extent than coumaphos
  synergism with diazinon: Synergism was also observed
[3]; 0.1 or 0.05% diazinon, weaker than with coumaphos
  synergism with diazinon: Synergism was also observed
[3]; 1% atrazine with 0.3, 0.6 or 1.2% w/v coumaphos, first trial, 24 h
  effect on coumaphos toxicity: dramatically increased
[3]; atrazine with 0.3% coumaphos, atrazine/coumaphos ratio 2/1, 24 h
  mortality: 100%
[3]; high atrazine/chlorpyrifos ratios (8/1 and above)
  effect on chlorpyrifos toxicity: synergized
[3]; varying atrazine concentrations, even at atrazine/coumaphos ratio 0.25/1, second trial
  effect on toxicity of 0.3% coumaphos: strongly synergized
[4]
  effect on coumaphos toxicity: substantially as described in Example 1
  effect on diazinon toxicity: substantially as described in Example 1
  effect on pirimiphos-methyl toxicity: substantially as described in Example 1
  effect on toxicity of chlorpyrifos: did synergize
Brown dog tick larvae; atrazine alone 0.8%
  mortality: 25.7%
Brown dog tick larvae; atrazine alone 1.0%
  mortality: 18.9%
Brown dog tick larvae; atrazine alone at or below 0.4%
  mortality: less than 4%
[5]; 0.1% coumaphos, atrazine/coumaphos ratio 2/1 and above, both trials
  effect on coumaphos toxicity: significantly enhanced
[5]; 0.25% diazinon
  effect on toxicity of diazinon: significantly enhanced
[6]; 0.01% chlorpyrifos
  effect on toxicity of chlorpyrifos: significantly enhanced
[6]; 0.01% coumaphos
  synergism with coumaphos: varying levels of synergism
[6]; higher diazinon concentration 0.05% (data not shown)
  synergism with diazinon: synergistic effect of atrazine was observed even at low atrazine/diazinon ratios
[6]; very low diazinon 0.005%, ratio 32/1
  synergism with diazinon: only provided a synergistic effect at high atrazine/diazinon ratios
[7]
  effect on toxicity of chlorpyrifos: neither atrazine nor propazine had any effect
  effect on toxicity of coumaphos: reduced the toxicity
  effect on toxicity of pirimiphos-methyl: synergized
[7]; combined with diazinon 2.8 μg/cm^2, even at low ratio 0.25/1
  effect on diazinon activity (fly mortality): significant synergistic effect

## CCOP(=S)(OCC)Oc1ccc2c(C)c(Cl)c(=O)oc2c1 [coumaphos]
[1]
  resistance of the strain: 5.5 fold
[1]; coumaphos alone at 0.05%
  mortality: 28.9%
[3]; 0.3% coumaphos alone, 24 h
  effect on larvae (mortality): virtually no effect
[3]; compared with all strains tested
  resistance of the strain to the acaricide: highest resistance
Brown dog tick larvae; 0.035% coumaphos used with the synergist atrazine (1%)
  mortality: greater than 60%
Brown dog tick larvae; higher concentrations
  effect on larvae: mortality increased
Brown dog tick larvae; less than or equal to 0.035%
  effect on larvae: no effect
[5]; first trial
  mortality: 42.6%
[5]; repeated trial
  mortality: 10.1%
[5]
  resistance of the strain: low resistance
[6]; coumaphos alone 0.01%, similar to the control
  mortality: 36%

## CCOP(=S)(OCC)Oc1cc(C)nc(C(C)C)n1 [diazinon]
[1]
  resistance of the strain: 2.6 fold
[5]
  resistance of the strain: very high level of resistance

## CC1(C)C(C=C(Cl)Cl)C1C(=O)OCc1cccc(Oc2ccccc2)c1 (stereo not shown) [permethrin]
[1]
  resistance of the strain: 200 fold

## CC(C)Nc1nc(Cl)nc(NC(C)C)n1 [propazine]
[4]
  effect on coumaphos toxicity: substantially as described in Example 1
  effect on diazinon toxicity: substantially as described in Example 1
  effect on pirimiphos-methyl toxicity: substantially as described in Example 1
  effect on toxicity of chlorpyrifos: did synergize
[7]
  effect on toxicity of chlorpyrifos: neither atrazine nor propazine had any effect
  effect on toxicity of coumaphos: reduced the toxicity
  effect on toxicity of pirimiphos-methyl: synergized
